Source: US20020015967A1, “FUNCTIONAL EXPRESSION OF ADENOSINE RECEPTORS IN YEAST” (priority 1998, published 2002)

Biological target: T1, human A3 receptor (Homo sapiens, UniProt P0DMS8)
T1 construct: expressed in transfected cells
T1 sequence (P0DMS8 1-318): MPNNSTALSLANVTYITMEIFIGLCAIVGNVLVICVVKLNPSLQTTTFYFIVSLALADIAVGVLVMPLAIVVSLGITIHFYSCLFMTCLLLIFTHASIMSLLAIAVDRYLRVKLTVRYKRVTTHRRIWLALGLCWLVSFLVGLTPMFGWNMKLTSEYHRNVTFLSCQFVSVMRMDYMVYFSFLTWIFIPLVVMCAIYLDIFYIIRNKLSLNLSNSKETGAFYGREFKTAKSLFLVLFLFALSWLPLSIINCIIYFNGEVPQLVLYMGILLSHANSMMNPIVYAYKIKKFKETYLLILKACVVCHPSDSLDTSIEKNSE
Experiment: Radioligand displacement binding, [125I]AB-MECA, mammalian membranes
Details: [125I]AB-MECA 0.75 nM; 10 ug mammalian membranes; 60 minutes room temperature; read-out: IC50 hA3R

IC50: 8.22 µM
SMILES: O=c1[nH]c(=O)c2nc3ccccc3nc2[nH]1 [Alloxozine]
